The values below are quoted from earlier work in patent publication US12329862B2, “Transdermal therapeutic system containing asenapine” (LTS LOHMANN THERAPIE-SYSTEME AG, priority 2018, dated 2025).

Usually bioavailability stands for the share of a dose that reaches the circulation, judged against a reference dose that is usually intravenous.

As for `CN1C[C@H]2c3ccccc3Oc3ccc(Cl)cc3[C@@H]2C1` (relative stereo) [asenapine, (3aRS,12bRS)-rel-5-chloro-2,3,3a,12b-tetrahydro-2-methyl-1H-dibenz[2,3:6,7]oxepino[4,5-c]pyrrole], the bioavailability (if ingested) is below 2%. In addition, where the note is “sublingual administration, therapeutic doses”, the terminal disposition half-life is at least 24 h. Further, where the note is “very common side effects”, the “Somnolence and anxiety, share of the patients” value was at least 10%.
